Measured values from patent US9546377B2, “Methods for the identification of genes involved in abiotic stress tolerance in plants” (priority 2011, dated 2017).

What was measured:
[1] = test system: Arabidopsis; experiment: Kill curves for individual osmotic stress agents; assay type: in vivo; details: kill curve experiments, each stress agent individually in the media
Source text: The standardization of growth conditions and generation of kill curves for various osmotic stress agents individually was done before the development of quad stress assay conditions. […] As there were four stress agents being used together, a quarter of each together in a solution would denote 100% stress or an osmotic pressure of 1.23 MPa. Therefore the following concentrations of each component were used in “100% quad media”.
Assay Conditions: Seeds were surface sterilized and stratified for 48 hrs. About 100 seeds were inoculated in one plate and cultured in a growth chamber programmed for 16 h of light at 22° C. temperature and 50% relative humidity. Germination was scored as the emergence of radicle. Assay Plan: A 6-day assay and an extended 10-day assay were done to test the seeds from the 48 transgenic Arabidopsis lines for osmotic stress tolerance. • Day 0—Surface sterilized seeds of different drought leads and stratify. • Day 2—Inoculated onto quad media. • Day 4—Counted for germination (48 hrs). • Day 5—Counted for germination (72 hrs)/Take pictures or Scan plates from 48 hrs to 96 hrs. • Day 6—Counted for germination (96 hrs). • For the extended 10-day assay, germination was scored from 48 hrs to 96 hrs. On day 7, 8, 9 and 10, the emerged seedlings were checked for greenness and four leaf stage. Preparation of Media • Germination medium (GM or 0% quad media) for 1 liter: […]

[2] = test system: Arabidopsis; experiment: Paraquat tolerance assay, dose effect of paraquat on growth; assay type: in vivo
Experimental: In light-exposed plants, paraquat accepts electrons from photosystem I and transfers them to molecular oxygen. In this manner, destructive reactive oxygen species are produced. A range of paraquat concentrations were tested in Arabidopsis. […] Compared to wild-type plants, mutant plants have larger size and less-bleached leaves under these conditions. A quantitative assay based on leaf area and color (similar to low N plate analysis) can be easily integrated into this screen.
The dose effect of paraquat on Arabidopsis growth was determined. […] Therefore this concentration was used for paraquat resistance assay. […] Tsu can serve as a positive control for this assay.
Seeds were surface sterilized and stratified for 96 hrs. 18 seeds for each tested line and Col-0 were inoculated in one plate, then cultured in a growth chamber programmed for 16 h of light at 22° C. temperature, 150 μE light intensity and 50% relative humidity. Growth phenotype was scored based on leaf size and color at 7-day-after inoculation.
Seeds were inoculated on a square paraquat plate. 18 seeds of test lines and 18 seeds of Col-0 were evenly put on the plate side by side. Plates were then cultured in the chambers set at 16 h of light at 22° C. temperature, 150 μE light intensity and 50% relative humidity.

Molecule [Cl-].[Na+] [NaCl, sodium chloride] has a lethal concentration [1] of 150 mM.
Work on OC[C@@H](O)[C@@H](O)[C@H](O)[C@H](O)CO [mannitol] yielded a lethal concentration [1] of 500 mM.
With C[n+]1ccc(-c2cc[n+](C)cc2)cc1 [paraquat] the “effect on Col-0 plants” value ([2]; 0.03 μM paraquat) was “plants died one-week-after germination”, the “concentration that greatly inhibited Arabidopsis growth” value ([2]; 7-day growth on plates) was 0.03 µM and the “concentration at which the effect on growth can be detected” value ([2]; in vivo) was 0.01 µM. The “concentration giving dose-dependent growth inhibition and leaf bleach” value ([2]; range of paraquat concentrations tested in Arabidopsis) was 0.01 to 0.1 µM.
Molecule OC[C@@H](O)[C@@H](O)[C@H](O)[C@@H](O)CO [sorbitol] has a lethal concentration [1] of 500 mM.
